Source: ChEMBL document CHEMBL1152277, “Lead optimization of 4-acetylamino-2-(3,5-dimethylpyrazol-1-yl)-6-pyridylpyrimidines as A2A adenosine receptor antagonists for the treatment of Parkinson's disease” (J Med Chem, 2008)
In brackets after ≈: the same amount, converted by molar mass. Activity calls are given as the source filed them. The rule behind the calls is not given here.

Experiments:
Homo sapiens = organism: Homo sapiens; assay: Selectivity ratio of Ki for human adenosine A1 receptor to Ki for human adenosine A2A receptor
Adenosine receptor A2a [1] = target: T1, Adenosine receptor A2a (Homo sapiens, UniProt P29274); assay: Displacement of [3H][…] from human adenosine A2A receptor expressed in HEK293 cells; format: cell-based
[2] = Metabolic stability in rat liver microsomes assessed as intrinsic clearance by LC-MS/MS analysis; format: ADME, Microsome
Adenosine receptor A1 = target: T2, Adenosine receptor A1 (Homo sapiens, UniProt P30542); assay: Displacement of [3H]DPCPX from human adenosine A1 receptor expressed in HEK293 cells; format: cell-based
T2 sequence (P30542 whole entry): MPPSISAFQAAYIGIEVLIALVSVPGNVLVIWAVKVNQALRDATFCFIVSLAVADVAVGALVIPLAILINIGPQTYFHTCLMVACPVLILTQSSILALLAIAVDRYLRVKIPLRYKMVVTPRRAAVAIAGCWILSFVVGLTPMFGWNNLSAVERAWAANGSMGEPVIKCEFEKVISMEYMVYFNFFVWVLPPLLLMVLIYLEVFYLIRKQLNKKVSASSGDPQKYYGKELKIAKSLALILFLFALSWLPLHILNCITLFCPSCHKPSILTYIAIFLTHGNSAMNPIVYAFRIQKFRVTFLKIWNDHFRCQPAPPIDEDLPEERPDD

[3] = Metabolic stability in human liver microsomes assessed as intrinsic clearance by LC-MS/MS analysis; format: ADME, Microsome
[4] = Drug concentration in rat brain at 10 mg/kg, po after 2 hrs; format: ADME, organism-based; parameters: dose 10 mg/kg, route oral; settings: read-out: Drug uptake
[5] = Plasma concentration in rat at 10 mg/kg, po after 2 hrs; format: ADME, organism-based; parameters: dose 10 mg/kg, route oral
Rattus norvegicus [6] = organism: Rattus norvegicus; assay: Inhibition of haloperidol-induced catalepsy in rat assessed as minimal effective dose; format: functional; settings: read-out: MED
Cytochrome P450 3A4 = Cytochrome P450 3A4 (Homo sapiens, UniProt P08684)
Description: Inhibition of CYP3A4 in human liver microsomes by LC-MS/MS analysis

Adenosine receptor A2a [7] = target: T1, Adenosine receptor A2a; assay: Antagonist activity at human adenosine A2A receptor expressed in CHO cells assessed as inhibition of CGS-21680-induced cAMP production; format: functional, cell-based
Rattus norvegicus [8] = assay: Inhibition of haloperidol-induced catalepsy in rat at 10 mg/kg, po after 2 hrs; format: functional; parameters: scale not given: the % may be the effect or the level left
Adenosine receptor A2a [9] = target: Adenosine receptor A2a (Rattus norvegicus, UniProt P30543); assay: Displacement of [3H][…] from rat adenosine A2A receptor expressed in CHO cells; format: cell-based
[10] = Lipophilicity, log D at pH 7.4; format: physicochemical; settings: buffer
[11] = Aqueous solubility in phosphate-buffered saline at pH 7.4; format: physicochemical
[12] = Permeability from apical to basolateral side of the human Caco-2 membrane by LC-MS/MS analysis; format: ADME, cell-based; settings: read-out: permeability
[13] = Dissociation constant, pKa of the compound; format: physicochemical
[14] = target: Voltage-gated inwardly rectifying potassium channel KCNH2 (Homo sapiens, UniProt Q12809); assay: Inhibition of human ERG by electrophysiology assay
[15] = Permeability across MDCK cell membrane by cell-based MDR assay; format: ADME, Canis lupus familiaris; settings: dog, MDCK-MDR1; read-out: permeability
Rattus norvegicus [16] = assay: Inhibition of haloperidol-induced catalepsy in rat at 30 mg/kg, po after 2 hrs; format: functional

T1 sequence (P29274 whole entry): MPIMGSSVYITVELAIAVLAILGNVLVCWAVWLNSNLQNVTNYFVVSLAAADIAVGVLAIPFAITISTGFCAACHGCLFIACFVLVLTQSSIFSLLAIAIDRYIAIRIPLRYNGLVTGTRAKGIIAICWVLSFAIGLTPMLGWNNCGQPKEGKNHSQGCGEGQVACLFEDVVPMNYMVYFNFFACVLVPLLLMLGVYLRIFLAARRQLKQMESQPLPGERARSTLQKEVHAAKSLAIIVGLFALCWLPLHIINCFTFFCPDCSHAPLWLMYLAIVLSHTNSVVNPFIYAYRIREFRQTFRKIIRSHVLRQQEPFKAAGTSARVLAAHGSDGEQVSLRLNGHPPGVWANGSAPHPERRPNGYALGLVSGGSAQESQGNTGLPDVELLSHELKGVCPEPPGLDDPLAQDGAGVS
Sequence of Adenosine receptor A2a (Rattus norvegicus, UniProt P30543) (P30543 whole entry): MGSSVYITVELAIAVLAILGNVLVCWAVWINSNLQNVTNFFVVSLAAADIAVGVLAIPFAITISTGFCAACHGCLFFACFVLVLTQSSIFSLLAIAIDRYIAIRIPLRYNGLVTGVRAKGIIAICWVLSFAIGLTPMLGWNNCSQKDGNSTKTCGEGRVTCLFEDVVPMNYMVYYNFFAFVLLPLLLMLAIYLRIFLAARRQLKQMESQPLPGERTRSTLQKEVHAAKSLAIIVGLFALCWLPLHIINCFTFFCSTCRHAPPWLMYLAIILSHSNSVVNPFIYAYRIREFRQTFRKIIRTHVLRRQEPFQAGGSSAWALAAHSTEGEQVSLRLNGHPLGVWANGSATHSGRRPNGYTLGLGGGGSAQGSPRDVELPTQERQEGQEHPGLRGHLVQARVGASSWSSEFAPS
Sequence of Cytochrome P450 3A4 (P08684 whole entry): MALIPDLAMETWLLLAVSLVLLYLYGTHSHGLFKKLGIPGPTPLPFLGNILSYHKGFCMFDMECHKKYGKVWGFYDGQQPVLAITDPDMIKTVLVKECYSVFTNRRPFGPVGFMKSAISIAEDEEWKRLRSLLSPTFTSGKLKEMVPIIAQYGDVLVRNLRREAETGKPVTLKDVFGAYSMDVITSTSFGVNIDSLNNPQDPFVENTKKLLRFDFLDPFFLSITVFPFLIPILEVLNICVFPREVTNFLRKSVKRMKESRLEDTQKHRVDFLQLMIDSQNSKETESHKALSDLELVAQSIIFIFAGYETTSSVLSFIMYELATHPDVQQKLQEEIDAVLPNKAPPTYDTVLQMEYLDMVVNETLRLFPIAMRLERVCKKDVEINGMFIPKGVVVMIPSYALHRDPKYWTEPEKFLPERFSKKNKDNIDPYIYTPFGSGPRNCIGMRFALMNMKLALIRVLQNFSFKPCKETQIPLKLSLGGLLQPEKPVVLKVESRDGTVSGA
Sequence of Voltage-gated inwardly rectifying potassium channel KCNH2 (Q12809 whole entry): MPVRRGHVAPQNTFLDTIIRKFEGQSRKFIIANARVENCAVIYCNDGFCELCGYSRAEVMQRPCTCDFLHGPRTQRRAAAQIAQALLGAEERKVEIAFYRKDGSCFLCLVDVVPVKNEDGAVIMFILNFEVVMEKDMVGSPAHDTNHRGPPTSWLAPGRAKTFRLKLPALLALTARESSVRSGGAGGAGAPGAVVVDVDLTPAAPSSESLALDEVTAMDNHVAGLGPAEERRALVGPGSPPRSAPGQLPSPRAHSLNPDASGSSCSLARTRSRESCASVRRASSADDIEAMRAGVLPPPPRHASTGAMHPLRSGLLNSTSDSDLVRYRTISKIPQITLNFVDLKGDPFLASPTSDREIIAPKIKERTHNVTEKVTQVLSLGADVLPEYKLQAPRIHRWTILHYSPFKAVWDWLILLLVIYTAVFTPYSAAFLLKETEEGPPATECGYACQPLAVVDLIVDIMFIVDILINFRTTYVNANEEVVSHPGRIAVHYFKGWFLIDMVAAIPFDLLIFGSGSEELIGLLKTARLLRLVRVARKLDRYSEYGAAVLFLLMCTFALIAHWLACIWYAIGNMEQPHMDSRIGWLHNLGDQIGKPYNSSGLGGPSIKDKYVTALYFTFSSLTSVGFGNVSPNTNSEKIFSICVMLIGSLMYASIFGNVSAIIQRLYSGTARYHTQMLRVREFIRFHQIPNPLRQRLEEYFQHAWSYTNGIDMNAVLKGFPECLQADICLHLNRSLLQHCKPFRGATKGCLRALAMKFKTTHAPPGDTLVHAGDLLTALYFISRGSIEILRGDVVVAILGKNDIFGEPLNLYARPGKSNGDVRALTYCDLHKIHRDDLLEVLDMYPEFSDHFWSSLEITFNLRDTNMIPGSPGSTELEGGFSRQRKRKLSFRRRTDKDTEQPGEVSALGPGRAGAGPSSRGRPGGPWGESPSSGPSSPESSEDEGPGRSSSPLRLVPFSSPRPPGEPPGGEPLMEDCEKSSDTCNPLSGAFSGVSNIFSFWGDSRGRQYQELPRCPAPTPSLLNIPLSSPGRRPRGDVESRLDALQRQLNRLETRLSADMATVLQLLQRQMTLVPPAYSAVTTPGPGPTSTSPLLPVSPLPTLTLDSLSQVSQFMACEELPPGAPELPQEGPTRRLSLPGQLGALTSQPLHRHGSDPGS

Structure (SMILES) | Ratio Ki (Homo sapiens) | Ki (Adenosine receptor A2a [1]) [nM] | CLint scaled [2] [mL/min/kg] | Ki (Adenosine receptor A1) [nM] | CLint scaled [3] [mL/min/kg] | concentration at 2 h [4] [ng/g] | concentration at 2 h [5] [ng/mL] | minimal effective dose (Rattus norvegicus [6]) [mg/kg] | IC50 (Cytochrome P450 3A4) [µM] | IC50 (Adenosine receptor A2a [7]) [nM] | Activity (Rattus norvegicus [8]) [%] | Ki (Adenosine receptor A2a [9]) [nM] | logD [10] | solubility [11] [µg/mL] | Papp A→B [12] [×10⁻⁶ cm/s] | pKa [13] | IC50 [14] [nM] | Papp [15] [×10⁻⁶ cm/s] | Activity (Rattus norvegicus [16])
COCCN(C)c1cccc(-c2cc(NC(C)=O)nc(-n3nc(C)cc3C)n2)n1 | 76 | 0.72 | 490 | 55 | 52 | 870 | 220 | 10 | 2.5 | 70 | 70 | 14 |  |  |  |  |  |  | 
COc1cc(OC)cc(-c2cc(NC(C)=O)nc(-n3nc(C)cc3C)n2)c1 | 116 | 0.19 | 110 | 22 | 9.3 | 1150 | 1330 | 1 | 0.38 | 17 | 49 | 3 | 3.2 | < 20 | 2.4 |  |  |  | 
CC(=O)Nc1cc(-c2cc(N3CCOCC3)ccn2)nc(-n2nc(C)cc2C)n1 | 53 | 87 |  | 4600 |  |  |  |  |  |  |  |  |  |  |  |  |  |  | 
CC(=O)Nc1cc(-c2cccc(N3CCN(C)CC3)n2)nc(-n2nc(C)cc2C)n1 | 175 | 0.71 | 25 | 120 | 3 | 91 | 53 |  | > 20 | 7 |  | 7 |  | 240 (≈ 590 µM) |  | 7.6 | 540 | 15.4 | inactive
CC(=O)Nc1cc(-c2cccc(N)n2)nc(-n2nc(C)cc2C)n1 | 57 | 7.9 |  | 440 |  |  |  |  | > 20 |  |  |  |  |  |  |  |  |  | 
CC(=O)Nc1cc(-c2cccc(N3CCCOCC3)n2)nc(-n2nc(C)cc2C)n1 | 121 | 2.3 | 1000 | 280 | 94 |  |  |  | > 20 |  |  |  |  |  |  |  |  |  | 
CC(=O)Nc1cc(-c2ccccc2)nc(-n2nc(C)cc2C)n1 | 3.3 |  |  | 290 |  |  |  |  | 43 |  |  |  |  |  |  |  |  |  | 
COCCOc1cncc(-c2cc(NC(C)=O)nc(-n3nc(C)cc3C)n2)c1 |  | 3.1 | 43 | 110 | 3 |  |  |  |  |  |  |  |  |  |  |  |  |  | 
CC(=O)Nc1cc(-c2cncc(N3CCOCC3)c2)nc(-n2nc(C)cc2C)n1 | 74 | 3 | 150 | 220 | 12 |  |  |  | > 20 |  |  |  |  |  |  |  |  |  | 
CCC(=O)Nc1cc(-c2cncc(OC)c2)nc(-n2nc(C)cc2C)n1 | 39 | 1.8 | 110 | 70 | 29 | 1380 | 860 | 1 | 17 | 31 | 69 | 21 | 2.8 |  |  | 3.6 |  |  | 
CC(=O)Nc1cc(-c2ccnc(N3CCOCC3)c2)nc(-n2nc(C)cc2C)n1 | 48 | 12 |  | 580 |  |  |  |  |  |  |  |  |  |  |  |  |  |  | 
CC(=O)Nc1cc(-c2cncc(O)c2)nc(-n2nc(C)cc2C)n1 | 67 | 2.9 | 140 | 195 | 41 | 154 | 264 |  | 18 | 64 |  | 32 | 2.4 |  |  |  |  |  | inactive
CC(=O)Nc1cc(-c2cccc(N3CCCCC3)n2)nc(-n2nc(C)cc2C)n1 | 54 | 0.56 |  | 31 |  |  |  |  |  |  |  |  |  |  |  |  |  |  | 
